Data set [1] concerns Human immunodeficiency virus 1. Description: Antiviral activity against HIV-1 IIIB infected in […] cells assessed as reduction in viral replication measured for 72 hrs. It counts as functional, organism-based. The conditions noted are these: Human immunodeficiency virus 1, IIIB.
Data set [2] is described as follows: Cytotoxicity against African green monkey Vero cells assessed as reduction in cell viability incubated for 72 hrs by MTT assay. It is filed as toxicity, cell-based. The conditions noted are these: chlorocebus sabaeus. For orientation: Formazan colour is commonly taken as a measure of viable cells.
Data set [3] can be described thus: Selectivity index, ratio of CC50 for Vero cells to EC50 for antiviral activity against HIV-1 infected in Vero cells. It is filed as toxicity, cell-based. The conditions noted are these: monkey, read-out: Ratio CC50/EC50.
In data set [4] the test system is Human immunodeficiency virus 1. Briefly: Antiviral activity against wild type HIV-1 NL4-3 infected in human MT4 cells assessed as reduction in viral replication. It counts as functional, organism-based. The conditions noted are these: Human immunodeficiency virus 1, NL4-3, MT4; read-out: EC50.
In data set [5] the test system is Human immunodeficiency virus 1. Briefly: Antiviral activity against HIV-1 NL4-3 harboring infected Y181C mutant infected in human MT4 cells assessed as reduction in viral replication. It counts as functional, organism-based. The conditions noted are these: Human immunodeficiency virus 1, NL4-3, MT4.
For data set [6], the system named is Human immunodeficiency virus 1. Briefly: Antiviral activity against HIV-1 NL4-3 harboring infected K103N mutant infected in human MT4 cells assessed as reduction in viral replication. It counts as functional, organism-based. Conditions: Human immunodeficiency virus 1, NL4-3, MT4.
Data set [7] concerns Human immunodeficiency virus 1. Briefly: Antiviral activity against NNRTI-resistant HIV-1 harboring E138K mutant infected in human MT4 cells assessed as protection against virus-induced cytopathic effect by MTT assay. It is filed as functional, organism-based. The conditions noted are these: Human immunodeficiency virus 1, MT4.
Another data set deals with Candida albicans. Description: Antifungal activity against Candida albicans ATCC 10231 assessed as growth inhibition measured after 48 hrs by CLSI based method. It is filed as functional.
In a further data set the test system is Bacillus cereus. Briefly: Antibacterial activity against Bacillus cereus ATCC 4342 assessed as inhibition of microbial growth incubated for 24 hrs by microdilution method. It is filed as functional.
Data set [8] relates to Bacillus subtilis. Description: Antibacterial activity against Bacillus subtilis ATCC 6633 assessed as bacterial growth inhibition measured after 48 hrs by resazurin assay. It counts as functional. For orientation: The colour change of resazurin is a common sign of viable cells or microbes.
Data set [9] deals with Staphylococcus aureus. Briefly: Antibacterial activity against Staphylococcus aureus ATCC 25923 assessed as reduction in bacterial growth incubated for 18 to 20 hrs by broth microdilution assay. Conditions: time 18-20 hrs. It is filed as functional. In general terms: Broth dilution looks for growth in wells or tubes with falling amounts of substance.
A further data set has as its system Aspergillus niger. Description: Antifungal activity against Aspergillus niger assessed as reduction in fungal growth. It is filed as functional.
Data set [10] has as its system Human immunodeficiency virus 1. Briefly: Antiviral activity against HIV-1 IIIB infected in human C8166 cells assessed as reduction in virus-induced cytopathic effect incubated for 3 days by MTT assay. It counts as functional, organism-based. Conditions: Human immunodeficiency virus 1, IIIB, C8166, 72 h.
In the next data set the test system is C8166. Description: Cytotoxicity against human C8166 cells assessed as reduction in cell viability incubated for 72 hrs by MTT assay. It is filed as functional.
Data set [11] in a line: Selectivity index, ratio of CC50 for human C8166 cells to EC50 for antiviral activity against HIV-1 IIIB infected in human C8166 cells. Conditions: read-out: Ratio CC50/EC50. It is filed as toxicity, cell-based.
In data set [12] the test system is Human immunodeficiency virus 1. Description: Antiviral activity against wild type HIV-1 IIIB infected in human MT4 cells. The conditions noted are these: Human immunodeficiency virus 1, IIIB. It is filed as functional, organism-based.
For data set [13], the system named is Staphylococcus aureus. Description: Antibacterial activity against Staphylococcus aureus. It is filed as functional.
Data set [14] concerns Bacillus subtilis. Description: Antibacterial activity against Bacillus subtilis. It is filed as functional.
In data set [15] the test system is Human immunodeficiency virus 1. Briefly: Antiviral wild type activity against HIV-1 IIIB infected in human C8166 cells assessed as reduction in virus-induced cytopathic effect incubated for 3 days by MTT assay. It is filed as functional, organism-based. The conditions noted are these: Human immunodeficiency virus 1, IIIB, C8166, 72 h.
Data set [16] has as its system Human immunodeficiency virus 1. Description: Antiviral wild type activity against HIV-1 Ba-L infected in human TZM-bl cells assessed as reduction in virus-induced cytopathic effect incubated for 3 days by MTT assay. Conditions: Human immunodeficiency virus 1, Ba-L, 72 h. It counts as functional, organism-based.
In data set [17] the test system is Human immunodeficiency virus 1. Briefly: Antiviral wild type activity against HIV-1 TC-1 infected in human PBMC cells assessed as reduction in virus-induced cytopathic effect incubated for 3 days by MTT assay. Conditions: Human immunodeficiency virus 1, TC-1, PBMC, 72 h. It is filed as functional, organism-based.
Data set [18] concerns Human immunodeficiency virus 1. Briefly: Antiviral wild type activity against HIV-1 WAN infected in human PBMC cells assessed as reduction in virus-induced cytopathic effect incubated for 3 days by MTT assay. The conditions noted are these: Human immunodeficiency virus 1, WAN, 72 h. It counts as functional, organism-based.
The subject of data set [19] is Human immunodeficiency virus 1. Briefly: Antiviral […] activity against HIV-1 A17 harboring reverse transcriptase K103N/Y181C double mutant infected in human C8166 cells assessed as reduction in virus-induced cytopathic effect incubated for 3 days by MTT assay. It counts as functional, organism-based. The conditions noted are these: Human immunodeficiency virus 1, A17, C8166, 72 h.

Data set [20] is described as follows: Inhibition of HIV-1 Reverse transcriptase G190S mutant. Also noted: species or system Human immunodeficiency virus 1.
Data set [21] has as its system Human immunodeficiency virus 1. Description: Antiviral activity against HIV-1 harboring RT K103N mutant infected in human MT4 cells assessed as protection against virus-induced cytopathic effect measured for 5 days by MTT assay. It counts as functional, organism-based. Conditions: Human immunodeficiency virus 1, MT4, 120 h.
The subject of data set [22] is MT4. Briefly: Cytotoxicity against human MT4 cells. It counts as functional.
In data set [23] the target is Human immunodeficiency virus type 1 reverse transcriptase (Human immunodeficiency virus 1, UniProt Q72547). Briefly: Inhibition of recombinant HIV-1 reverse transcriptase associated RNA-dependent DNA polymerase activity.
Data set [24] can be described thus: Selectivity index, ratio of CC50 for human MT4 cells to EC50 for antiviral activity against HIV1 infected in human MT4 cells. The conditions noted are these: read-out: Ratio CC50/EC50. It counts as toxicity, cell-based.
Data set [25] has as its system MT4. Briefly: Cytotoxicity against human MT4 cells assessed as reduction in […] incubated for 4 days by MTT assay. It counts as functional. The conditions noted are these: MT4, 96 h, time 4 day.
In data set [26] the test system is Human immunodeficiency virus 1. Briefly: Antiviral activity against HIV1 IIIB infected in human MT4 cells assessed as reduction in virus-induced cytopathic effect incubated for 4 days by MTT assay. It is filed as functional, organism-based. The conditions noted are these: Human immunodeficiency virus 1, IIIB, MT4, 96 h.
For data set [27], the system named is Human immunodeficiency virus 1. Briefly: Antiviral activity against HIV1 harboring Y181C mutant infected in human MT4 cells. It counts as functional, organism-based. The conditions noted are these: Human immunodeficiency virus 1, MT4.
Data set [28] relates to Human immunodeficiency virus 1. Briefly: Antiviral activity against HIV-1 harboring L100I mutant infected in human MT4 cells assessed as virus-induced cytopathicity treated for 5 days by MTT assay. Conditions: Human immunodeficiency virus 1, MT4, 120 h. It counts as functional, organism-based.
The subject of data set [29] is Human immunodeficiency virus 1. Description: Antiviral activity against HIV1 harboring Y188H mutant infected in MT4 cells assessed as virus-induced cytopathicity treated for 5 days by MTT assay. It is filed as functional, organism-based. The conditions noted are these: Human immunodeficiency virus 1, MT4, 120 h.
Data set [30] can be described thus: Cytotoxicity against human PBMC cells. It counts as toxicity, cell-based.
The subject of data set [31] is Human immunodeficiency virus 1. Briefly: Antiviral activity against HIV-1 IIIB infected in human MT2 cells assessed as inhibition of viral growth. Conditions: Human immunodeficiency virus 1, IIIB. It is filed as functional, organism-based.
Another data set concerns MT2. Briefly: Cytotoxicity against human MT2 cells assessed as reduction in cell growth. It counts as functional, cell-based.

Values after ≈ are worked out from the molar mass of the structure shown.

A word on the EC50: it is the midpoint of the concentration-response curve. The term CC50 denotes the concentration that lowers cell viability or growth by half. On to `Cc1c(Sc2ccccc2)n(COCCO)c(=O)[nH]c1=O` [HEPT], for which the EC50 in [1] came to 7 µM. Also, the CC50 at 72 h in data set [2] was 740 µM. Further, in data set [3], the selectivity ratio was found to be 106.

With `Cc1c(C(C)c2c(F)cccc2F)nc(N(C)Cc2ccc([N+](=O)[O-])cc2)[nH]c1=O` (centres undefined), the EC50 in data set [4] was found to be 0.01 µM; in data set [5] it was 0.814 µM; in data set [6], 0.518 µM; in data set [7], 0.518 µM.

One may read the MIC as the lowest concentration that inhibits growth of the organism. With `CCc1c(Cc2ccc3c(c2)OCO3)nc(SCCCN2C(=O)c3ccccc3C2=O)[nH]c1=O`, the MIC in the data set on Candida albicans came to 25 µg/mL (≈ 52.4 µM); in the data set on Bacillus cereus, 75 µg/mL; in the data set on Bacillus subtilis [8] it was 100 µg/mL (≈ 209 µM); in the data set on Staphylococcus aureus [9], 25 µg/mL (≈ 52.4 µM); with Aspergillus niger, 75 µg/mL (≈ 157 µM).

As to `CCc1c(CC23CC4CC(CC(C4)C2)C3)nc(SCC(=O)c2ccc(OC)cc2)[nH]c1=O`, the EC50 in [10] and in [12] was 0.1 µM throughout. For the same molecule, the CC50 with C8166 amounted to 17.2 µM. Also, the selectivity ratio in data set [11] stood at 172.

In the case of `Cc1ccc(-c2nc(S/C(=N/Nc3ccc(O)cc3)C(=O)c3ccc(Br)cc3)[nH]c(=O)c2C#N)cc1`, the results for the MIC in the data set with Staphylococcus aureus [13] and with Bacillus subtilis [14] were 0.19 µg/mL (≈ 0.339 µM) and 1.17 µg/mL (≈ 2.09 µM), respectively.

Take `CCc1c(CC2CCCCC2)nc(SCc2cc(-c3ccc(O)cc3)[nH]n2)[nH]c1=O`: the EC50 in [10] is 0.003 µM; in data set [15] it was 0.004 µM; in data set [16], 0.048 µM; in [17] it was 0.014 µM; in [18], 0.056 µM; in [19], 2.77 µM.

The IC50 is the midpoint of a concentration-inhibition curve. `Cc1cc(/C=C/C#N)cc(C)c1Nc1ncnc(Nc2ccc(C#N)cc2)n1` returned an IC50 in data set [20] of 0.0001 µM.

For the molecule `Cc1cc(=O)[nH]c(SCCN2C(=O)c3ccccc3C2=O)n1`, the EC50 in data set [21] came out at 1.9 µM. In the data set with MT4 [22], this molecule returned a CC50 of 117 µM.

On to `Cc1ccccc1Cc1nc(SC2CCCCC2)[nH]c(=O)c1C`, for which the IC50 in [23] came out at 1.3 µM. Moreover, the selectivity ratio in [24] is over 506. Moreover, in the data set on MT4 [25], the CC50 was over 304 µM. Moreover, the EC50 in [26] worked out at 0.6 µM.

`C[C@H](Sc1nc(N)cc(Cl)n1)c1cc2ccoc2cn1`: the EC50 in [27] amounted to 0.179 µM; in [28], 0.039 µM; in data set [29] it was 0.077 µM.

Turning to `CCc1c(Cc2ccc3c(c2)OCO3)nc(SCCN(C)C)[nH]c1=O`, the MIC is 50 µg/mL (≈ 138 µM) in the data set on Candida albicans; 100 µg/mL with Bacillus cereus; 50 µg/mL (≈ 138 µM) with Bacillus subtilis [8]; 25 µg/mL (≈ 69.2 µM) with Staphylococcus aureus [9]; 75 µg/mL (≈ 207 µM) in the data set with Aspergillus niger.

As for `Nc1cc(Cl)nc(Sc2ccccc2)n1`, in data set [30], the CC50 was 207 µM.

In the case of `CCc1c(CC2CCCCC2)nc(SCc2cc(-c3ccc(SC)cc3)[nH]n2)[nH]c1=O`, the EC50 in data set [10] is 0.011 µM; in data set [15], 0.018 µM; in [16], 0.193 µM; in [17], 0.055 µM; in data set [18], 0.165 µM; in [19] it was 4.87 µM.

Take `Nc1cc(Cl)nc(SCc2ccccc2)n1`: the EC50 in [31] worked out at 0.4 µM. In addition, the IC50 (with MT2; in data set [30]) was over 16 µM throughout.

For the origin of these results see ChEMBL document CHEMBL6115028, “An Amazing 30-Year Journey around the DABO Family: A Medicinal Chemistry Lesson on a Versatile Class of Non-nucleoside HIV-1 Reverse Transcriptase Inhibitors” (J Med Chem, 2025).
